Measurements from patent US20210008095A1, “METHODS FOR TREATING MUSCULAR DYSTROPHY” (Sarepta Therapeutics, Inc., priority 2015, published 2021).
Several values for one entry are separate records, joined by “and”; a condition that tells them apart may be missing. Equal entries are not always repeated. Entries after “also recorded” stand apart in the source; their conditions may differ. Marks after values point to notes of the source that are not given here.

What was measured:
[1] = system: patients with Duchenne muscular dystrophy (DMD) amenable to exon 51 skipping; experiment: 6 Minute Walk Test (6MWT), Study 201/202; type: in vivo, human; set-up: key to Year 4 6MWT: 6MWT distance walked, in meters; settings: for difference in mean change from baseline in 6MWT distance vs matched external control cohort: 12 treated vs 13 controls; for Year 4 6MWT/6MWD / Year 3 6MWT/6MWD: individual subjects; for Year 4 6MWT Difference in Mean Change: vs external matched control
Method: For the eteplirsen treated cohort, eligible patients were between 7 and 13 years of age (inclusive), with out-of-frame deletions of the DMD gene that could be corrected by skipping exon 51. Patients were confirmed to have stable cardiac and pulmonary function and a stable dose of glucocorticoids for at least 24 weeks prior to enrollment. Only patients who could walk between 200 and 400 meters […] on the 6-Minute Walk Test (6MWT) at baseline were enrolled.
This 4 year trial was conducted in two phases: (1) treatment was double-blind through week 24 and (2) open-label thereafter. The primary endpoint was change in ambulation as measured by the 6-Minute Walk Test (6MWT).
(§1) Study 201 (Study no. 4658-us-201; ClinicalTrials.gov Identifier: NCT01396239) was a single-site, randomized, double-blind, placebo-controlled, multiple-dose efficacy, safety and tolerability trial of eteplirsen. Twelve patients with DMD were randomized to one of three groups: eteplirsen 30 mg/kg/week (Cohort 1); eteplirsen 50 mg/kg/week (Cohort 2); or placebo/delayed eteplirsen (Cohort 3). All patients received weekly intravenous eteplirsen or placebo/delayed eteplirsen dosing. Placebo-treated patients crossed over to weekly eteplirsen 30 (n=2) or 50 mg/kg (n=2) at week 25. Efficacy and safety were assessed at scheduled visits, and an independent Data Safety Monitoring Board ensured the welfare of all patients. All patients had bicep biopsies at baseline. Follow-up biopsies were performed in the opposite arm (biceps) at week 12 for the 50 mg/kg group and two placebo-treated patients and at week 24 for the 30 mg/kg group and two placebo-treated patients.
(§2) Patients continued weekly dosing with 30 or 50 mg/kg eteplirsen under Study 202 (Study no. 4658-us-202; ClinicalTrials.gov Identifier: NCT01540409) a long-term, open-label extension study. All efficacy assessments continued to be performed during Study 202, including a third biopsy (in the left deltoid muscle) in all patients at week 48. A voluntary fourth biopsy ( 11/12 patients) was performed at week 180. Monitoring of adverse events continued throughout the study.
(§3) To compare the results of the eteplirsen cohort to a matched external control cohort, the Italian Telethon (n=97) and Leuven Neuromuscular Research Center (NMRC) (n=89) registries were used to compile control data. These registries were chosen because the following data was available: longitudinal 6MWT data in exon 51 amenable patients, longitudinal 6MWT data up to 36 months, and genetic mutation data. There was also an equivalent standard of care, including steroids, in these registries. Patient data was selected based on the following factors: baseline 6MTW and steroid treatment, age of 7 years or older, and amenable to exon 51 skipping (FIG. 2)
(§4) The 6MWT was administered using the protocol established for patients with DMD by McDonald, et al. (Muscle Nerve, 2010; 42:966-74; Muscle Nerve, 2010; 41:500-10 herein incorporated by reference), except there was no use of the StepWatch actimetry device. Exploratory functional outcomes included the North Star Ambulatory Assessment, quantitative muscle testing, the 9-Hole Peg Test, pulmonary function testing (PFT), timed function tests, and assessment of quality of life.

[2] = Safety and tolerability monitoring, Study 201/202; type: in vivo, human
Method: Safety was assessed by evaluation of adverse events, vital signs, physical examinations, electrocardiograms, echocardiograms, and clinical laboratory testing. In addition, kidney function was monitored via regular assessments of serum cystatin C and urine cystatin C and KIM-1.

[3] = system: patients with Duchenne muscular dystrophy (DMD) amenable to exon 51 skipping; experiment: Loss of ambulation / ambulatory status incl. Kaplan-Meier analysis, Study 201/202; type: in vivo, human
Method: as §1, §2, §3, §4

[4] = system: exon 51 of the human dystrophin gene; experiment: Exon 51 skipping in patient muscle biopsy at week 180; type: in vivo; settings: 180 weeks
Method: as §2

[5] = system: patients with Duchenne muscular dystrophy (DMD) amenable to exon 51 skipping; experiment: North Star Ambulatory Assessment (NSAA); type: in vivo, human; set-up: key to Year 3 NSAA Score: sum of activity scores, each 2 = normal to 0 = unable independently
Excerpt: Due to decreases in muscle function in patients with DMD, ambulation is often lost during disease progression. Ambulation can be measured through various methods, including the North Star Ambulatory Assessment (NSAA). The NSAA was developed by the Physiotherapy Assessment and Evaluation Group of the North Start Clinical Network to assess ambulant boys with DMD, and provides a list of activities that are scored from 2-0, with 2 being normal and 0 being “unable to achieve independently” (2006-2011 MDC/North Star Clinical Network). These activities range from standing for a minimum of 3 seconds to climbing up and down a box to running. In certain embodiments, treatment with eteplirsen may maintain, stabilize, increase, or improve ambulation, for example, as determined by the NSAA.
as §4

Substance: RNA, [P-deoxy-P-(dimethylamino)](2′,3′-dideoxy-2′,3′-imino-2′,3′-seco)(2′a→5′)(C-m5U-C-C-A-A-C-A-m5U-C-A-A-G-G-A-A-G-A-m5U-G-G-C-A-m5U-m5U-m5U-C-m5U-A-G), 5′-[P-[4-[[2-[2-(2-hydroxyethoxy)ethoxy]ethoxy]carbonyl]-1-piperazinyl]-N,N-dimethylphosphonamidate] (antisense CTCCAACATCAAGGAAGATGGCATTTCTAG; all phosphorodiamidate morpholino (PMO); 5' piperazinyl triethylene glycol carbamate tail on phosphonamidate, further chemistry not fully specified) [eteplirsen]
- difference in mean change from baseline in 6MWT distance vs matched external control cohort ([1]; 4 years): 162 m
- difference in mean change from baseline in 6MWT distance vs matched external control cohort ([1]; 36 months / 3 years): 151 m
- 6MWT distance percent change from baseline ([1]; 42 months, all 12 treated patients, external control −74% at month 36): −42%
- 6MWT distance percent change from baseline ([1]; 48 months, placebo-delayed patients excluded (n=8)): −43%
- Year 4 6MWT/6MWD ([1]; 216 weeks, dose group 30 mg/kg): 349 meters and 332 meters and 0 meters (2×)
- Year 4 6MWT/6MWD ([1]; 216 weeks, dose group 50 mg/kg): 192 meters and 221 meters and 237 meters and 400 meters
- Year 4 6MWT/6MWD ([1]; 216 weeks, dose group Placebo to 30 mg/kg): 197 meters and 55 meters
- Year 4 6MWT/6MWD ([1]; 216 weeks, dose group Placebo to 50 mg/kg): 230 meters and 143 meters
- Year 4 6MWT ([1]; Table 5, individual ambulatory subjects (n=10)): 192 and 197 and 230 and 332 and 221 and 55† and 400 and 349 and 237 and 143
- Year 4 6MWT Distance (m) ([1]; Table 6, individual ambulatory subjects (n=10)): 55† m and 332 m and 230 m and 221 m and 400 m and 349 m and 192 m and 143 m and 237 m and 197 m
- Year 3 6MWT/6MWD ([1]; dose group 30 mg/kg): 378 meters and 359 meters and 0 meters (2×)
- Year 3 6MWT/6MWD ([1]; dose group 50 mg/kg): 324 meters and 355 meters and 298 meters and 483 meters
- Year 3 6MWT/6MWD ([1]; dose group Placebo to 30 mg/kg): 312 meters and 100 meters
- Year 3 6MWT/6MWD ([1]; dose group Placebo to 50 mg/kg): 301 meters and 247 meters
- walking distance over the study ([1]; over the duration of the study, FIG. 6): maintained a stable walking distance
- walking ability retained relative to baseline ([1]; several subjects including subject number 4, 216 weeks): greater than 50%
- change in 6MWT relative to baseline ([1]; subject number 15, 216 weeks): lost one meter
- 6MWT distance at year 4 in patients below the NSAA threshold at year 3 ([1]; subjects 003 and 005, respectively): 143 meters and 192 meters
- Year 4 6MWT Difference in Mean Change ([1]; ANCOVA, Covariate: Baseline 6MWT): 150.3, p = 0.002
- Year 4 6MWT Difference in Mean Change ([1]; ANCOVA, Covariates: Baseline 6MWT, Age): 156.1, p = 0.002
- Year 4 6MWT Difference in Mean Change ([1]; ANCOVA, Rank transformed data): 8.7, p = 0.001
- Year 4 6MWT Difference in Mean Change ([1]; MMRM, Covariate: Baseline 6MWT): 146.5, p = 0.003
- Year 4 6MWT Difference in Mean Change ([1]; MMRM, Covariates: Baseline 6MWT, Age): 143.1, p = 0.004
- Year 4 6MWT Difference in Mean Change ([1]; MMRM, Rank transformed data): 8.4, p = 0.004
- patient ambulation between weeks 168 and 192 ([1]; weeks 168 to 192 (42 to 48 months)): patient ambulation stabilized; also recorded: stabilized patient ambulation
- drug-related serious adverse events ([2]; over 2300 doses, 192 week treatment period): no drug-related serious adverse events
- chemistries: hematologic, renal, coagulation or liver functions ([2]; through 216 weeks of treatment): no clinically significant changes in hematologic, renal, coagulation or liver functions
- electrocardiograms, echocardiograms and PFTs ([2]; through 216 weeks of treatment): remained stable
- physical examination and vital signs ([2]; through 216 weeks of treatment): no clinically significant changes
- tolerability: adverse events, discontinuations, missed doses ([2]; through 216 weeks of treatment): well tolerated with no treatment-related adverse events, serious adverse events, discontinuations or missed doses
- Kaplan-Meier estimate for loss of ambulation rate ([3]; 4 years / 216 weeks of treatment, external control 89.7%, p=0.0038 log-rank): 16.7%
- patients remaining ambulant ([3]; 216 weeks (over 4 years)): 83.3%
- number of patients remaining ambulant ([3]; 216 weeks of treatment): 10 out of 12
- age for loss of ambulation ([3]; Kaplan-Meier, external control median 12.8 years): could not be estimated
- number of patients who lost ambulation ([3]; over 36 months): two of the twelve
- cohort that lost ambulation (cumulative) ([3]; over 36 months, external control 46.2%): 16.7%
- number of patients who lost ambulation ([3]; over 216 weeks): two of the twelve
- DMD patients remaining ambulant ([3]; week 192, 30 mg/kg once per week): 83%
- number of patients ambulant ([3]; week 192 of treatment): 10/12
- ambulation in patients who lost the ability to rise from supine ([3]; year 4 of treatment): remained ambulant at year 4
- exon 51 skipping [4]: all patients had measurable exon 51 skipping
- rate of decline in NSAA score ([5]; at 2 and 3 years following treatment, vs external control): slower rate of decline in NSAA score
- difference in NSAA score compared to the external control group cohort ([5]; at 3 years): 2.6 points
- Year 3 NSAA Score ([5]; individual ambulatory subjects (n=10)): 13 (3×) and 14 and 24 and 25 (2×) and 7 and 8 and 11
